According to article PMC11203957, “Naphthoquinone-Quinolone Hybrids with Antitumor Effects on Breast Cancer Cell Lines—From the Synthesis to 3D-Cell Culture Effects” (International Journal of Molecular Sciences, 2024):

Columns and labels:
topoisomerase II = test system: topoisomerase II; parameters: method as in PMID 24858098; details: in vitro and in silico studies; cited from earlier work
[1] = test system: gastric cancer cells ACP03; parameters: method as in PMID 24858098; details: cited from earlier work
MCF-7 [2] = assay: MTT cell viability assay, MCF-7 (2D culture); format: cell-based, human; details: for IC50: Homo sapiens, MCF7, MTT, 24 h treatment, 2D culture, read-out: IC50 ± SEM MCF-7; for SI IC50 MCF10A/IC50 MCF-7: selectivity index
Experimental: (§1) Our first approach to assessing the anticancer activity of the novel 1,4-naphthoquinone/4-quinolone conjugates 11a–f on breast cancer cells involved comparing their effects in the MTT cell viability assay to determine the half-maximal inhibitory concentration (IC50) in the 2D cell culture model. Doxorubicin and 1,4-naphthoquinone were used as controls. Concentration-response curves were obtained with the conjugates at concentrations ranging from 0 to 200 µM. […] This observation aligns with the structural characteristics of this derivative, which features the largest alkyl substituent at position R^1.
(§2) The IC50 values were calculated using GraphPad Prism v. 8.0.1, and the selectivity index was estimated as the ratio between the IC50 value of MCF10A/IC50 value of MDA-MB-231 or MCF-7 [33], for each compound.

MDA-MB-231 = assay: MTT cell viability assay, MDA-MB-231 (2D culture); format: cell-based, human; details: for IC50: Homo sapiens, MDA-MB-231, MTT, 24 h treatment, 2D culture, read-out: IC50 ± SEM MDA-MB-231; for SI IC50 MCF10A/ IC50 MDA-MB-231: selectivity index
Experimental: as §1, §2

MCF10A = assay: MTT cell viability assay, non-tumor MCF10A; details: Homo sapiens, MCF-10A, 24 h, read-out: IC50 ± SEM MCF10A
MCF-7 [3] = assay: Clonogenic assay, MCF-7; format: cell-based, human; details: 25 µM, 24 h treatment, about 14 days growth
Excerpt: (§3) The clonogenic assay is an effective tool for investigating individual cells’ ability to form colonies. Tumor cells with the ability to generate an expanding family of descendants are clonogenic. Therefore, a clonogenic assay is a simple method to verify one of the important characteristics of cancer cells, which is the ability to detach from the site of origin and to form metastases in other locations. […] For instance, 90–99% of the tumor cells in FaDU tumors, a type of human squamous cell carcinoma observed in nude mice, are non-clonogenic. To achieve the main goal of cancer treatment, which is tumor eradication, it is necessary to inactivate all clonogenic cells through either cell killing or the induction of a permanent state of dormancy, thereby eliminating their clonogenic capacity. The assessment of the potential of a drug to achieve a curative outcome, i.e., effectively neutralizing clonogenic tumor cells, requires the utilization of experimental endpoints that accurately reflect the response of clonogenic cells. Clonogenic endpoints hold particular significance when novel anticancer agents are incorporated into curative therapeutic regimens, such as in combination with radiotherapy or chemotherapy. Thus, clonogenic assays were conducted for compounds 11a–f and 1,4-naphthoquinone.
(§4) Figure 6 The inhibition of colony formation by compounds 11a–f using MCF-7 (A,C) and MDA-MB-231 (B,D) cell lines. Cells were treated with derivatives 11a–f at 25 µM for 24 h. Subsequently, 400 cells were plated on 6-well plates for approximately 14 days. Then, cells were stained with crystal violet dye to visualize the colonies formed.

MCF-7 spheroids = assay: 3D-cell culture (spheroids), morphology and acid phosphatase viability, MCF-7; format: cell-based, human; details: 25 µM, 48 h
Excerpt: 3D-cell cultures display features that resemble in vivo tumors: due to their tridimensional structure, cells are not provided with the same amounts of oxygen and nutrients in the center as on the surface, resulting in a gradient that leads to the formation of a necrotic core, similar to the in vivo tumor environment. In the 3D-cell culture model used here, spheroids are formed due to low interaction with the microplate bottom, promoted by its coating with agarose, and strong cell-to-cell interactions in MCF-7 cells, generating a finely compact and homogeneous spheroid. For MDA-MB-231 cells, the addition of collagen I is an extra stimulus necessary for spheroid stabilization. Spheroids were prepared and grown for 48 h and then treated with the compounds at 25 µM. After 48 h, morphological changes were observed, and their viabilities were measured as described in Section 3. The exposure to the compounds for 48 h promoted visible changes in the morphologies of spheroids for both cell lines when compared to the controls (Figure 8). […] While it is more complicated to imply changes in the proliferative (surface) region of the MDA-MB-231 spheroids (Figure 8B), they are observed together with morphological changes after treatment, making them appear more crumbly and lose their round shape. These findings are in line with the viability test, which detected a reduction in the viabilities for all of them, which is significant compared to the control (p < 0.05), except for 11a in MDA-MB-231 spheroids (Figure 8C,D). We should also highlight that the concentrations necessary for an effect on spheroids are expected to be higher when compared to 2D-cell culture models. Here, we observed changes using 25 µM of each compound, as performed in the other experiments.
The procedure was performed as described by Gong et al., with a few modifications. A total of 5000 cells per well were plated on 96-well plates with bottoms previously covered with 50 µL of a 1% agarose solution. The plates were then centrifuged at 300× g for 10 min. For MDA-MB-231 cells, collagen I from rat tail (Gibco) was added to a 3 µg/mL final concentration in the cell suspension. […] The cell spheroids/aggregates were treated with fresh medium added to the compounds and their viability was evaluated after 48 h. Spheroids were photographed with an inverted microscope Bel INV-100 (Bel Engineering, Monza, Italy) equipped with a digital camera.
To measure spheroids viability, this viability assay was performed following Friedrich et al.. The medium was removed from wells and spheroids were washed with PBS. Then, 100 µL of a solution containing 2 mg/mL p-nitrophenyl phosphate (PNPP), 0.1 M citric acid, and 0.1% (v/v) Triton X, pH 5.0 were added. […]

MDA-MB-231 cells [4] = assay: Clonogenic assay, MDA-MB-231; format: cell-based, human; details: 25 µM, 24 h treatment, about 14 days growth
Excerpt: as §3, §4

MCF-7 cells [5] = assay: Annexin V/PI apoptosis assay, MCF-7; format: cell-based, human; details: 50 µM
Experimental: (§5) We investigated apoptosis induction through the annexin V/PI protocol, as described in Section 3. Doxorubicin, 1,4-naphthoquinone, and cisplatin were used as controls. […] For MDA-MB-231 cells (Figure 5B), the effects observed were more prominent at the concentrations tested.
(§6) For the apoptosis assay, the manufacturer’s instructions were followed (Dead Cell Apoptosis Kit with Annexin V for Flow Cytometry, Thermo Fisher Scientific, MA, USA). The cells were analyzed in a Countess II FL cell counter (Thermo Fisher Scientific, Waltham, MA, USA).
(§7) Figure 5 Naphthoquinone-quinolone hybrids induce apoptosis in MCF-7 (A) and MDA-MB-231 (B) cells at different levels.

MDA-MB-231 cells [6] = assay: Annexin V/PI apoptosis assay, MDA-MB-231; format: cell-based, human; details: 50 µM
Experimental: as §5, §6, §7

[7] = test system: hepatocellular carcinoma (BEL7402); parameters: method as in PMID 22406451; details: cited from earlier work
[8] = test system: cervix adenocarcinoma (HeLa); parameters: method as in PMID 22406451; details: cited from earlier work
MDA-MB-231 cells [9] = assay: Reversibility assay (MTT viability), MDA-MB-231; format: cell-based, human; details: 25 µM; 24 h, 24 + 24 h, 48 h
Experimental: (§8) Our next issue concerned the reversibility of the effects: whether they persisted through a longer time of treatment, or if they ceased after the removal of the treatments. To investigate this, we used each compound at 25 µM and treated the MCF-7 and MDA-MB-231 cells for 24 h and 48 h. The 48-h treatment group was further subdivided into two different categories: the first was treated for 24 h, after which the culture medium was replaced with fresh medium without the compound, and then incubated for an additional 24-h period (24 + 24 h). In the second category, cells were continuously exposed to the compound for the entire 48-h duration, without any handling during this period. Cell viability was assessed as the evaluation parameter. The results are shown in Figure 7A (MCF-7) and Figure 7B (MDA-MB-231). […] In MCF-7 cells, the effect observed is similar, with a lower intensity of apoptosis induction.
(§9) Figure 7 Reversibility assay: investigating the effects of treatment durability on cell viability of (A) MCF-7 cells and (B) MDA-MB-231 cells. Cells were treated in three different manners: (1) for 24 h, continuously; (2) for 24 h, followed by removal of the treatment and addition of fresh medium, then further cultivation for 24 h; and (3) for a total period of 48 h. Cell viability was measured using the MTT assay. * p < 0.05, Student’s t-test, n = 3.

MCF-7 cells [10] = assay: Reversibility assay (MTT viability), MCF-7; format: cell-based, human; details: 25 µM; 24 h, 24 + 24 h, 48 h
Experimental: as §8, §9

Cc1ccc(NC(=O)c2c[nH]c3ccc(Cl)cc3c2=O)cc1 [Compound 2a]
topoisomerase II activity inhibition (topoisomerase II): able to inhibit topoisomerase II activity
IC50 [1]: 1.92 µM

CCCCCn1cc(C(=O)O)c(=O)c2cc(C3=CC(=O)c4ccccc4C3=O)ccc21 [Compound 11f, 6-(1,4-dioxo-1,4-dihydronaphthalen-2-yl)-4-oxo-1-pentyl-1,4-dihydroquinoline-3-carboxylic acid]
IC50 (MCF-7 [2]): 65.7 ± 1.1 µM
SI IC50 MCF10A/IC50 MCF-7 (MCF-7 [2]): 0.11 ± 0.16
IC50 (MDA-MB-231): 24.1 ± 1.1 µM
SI IC50 MCF10A/ IC50 MDA-MB-231 (MDA-MB-231): 0.29 ± 0.16
IC50 (MCF10A): 6.92 ± 1.1 µM
melting point: > 300 °C
colony formation, MCF-7 (MCF-7 [3]): most effective

CCn1cc(C(=O)O)c(=O)c2cc(C3=CC(=O)c4ccccc4C3=O)ccc21 [Compound 11d, 6-(1,4-dioxo-1,4-dihydronaphthalen-2-yl)-1-ethyl-4-oxo-1,4-dihydroquinoline-3-carboxylic acid]
spheroid morphology, MCF-7 (MCF-7 spheroids): changes in the morphology
IC50 (MCF-7 [2]): 25.1 ± 1.2 µM
SI IC50 MCF10A/IC50 MCF-7 (MCF-7 [2]): 0.85 ± 0.07
IC50 (MDA-MB-231): 20.1 ± 1.1 µM
SI IC50 MCF10A/ IC50 MDA-MB-231 (MDA-MB-231): 1.07 ± 0.08
IC50 (MCF10A): 21.5 ± 1.2 µM
colony formation, MDA-MB-231 (MDA-MB-231 cells [4]): most effective
melting point: > 300 °C

O=C(Nc1cc(Cl)ccc1Cl)c1c[nH]c2ccc(Cl)cc2c1=O [Compound 2b]
topoisomerase II activity inhibition (topoisomerase II): able to inhibit topoisomerase II activity
IC50 [1]: 5.18 µM

N.N.[Cl][Pt][Cl] [cisplatin]
early apoptosis induction (annexin V/PI), MCF-7 (MCF-7 cells [5]): comparable
apoptosis profile (annexin V/PI), MDA-MB-231 (MDA-MB-231 cells [6]): lower effect

CCOC(=O)c1cn(Cc2ccccc2)c2ccc(C3=CC(=O)c4ccccc4C3=O)cc2c1=O [Compound 11b, Ethyl 1-benzyl-6-(1,4-dioxo-1,4-dihydronaphthalen-2-yl)-4-oxo-1,4-dihydroquinoline-3-carboxylate]
IC50 (MCF-7 [2]): 19.4 ± 1.1 µM
SI IC50 MCF10A/IC50 MCF-7 (MCF-7 [2]): 0.55 ± 0.13
IC50 (MDA-MB-231): 15.1 ± 1 µM
SI IC50 MCF10A/ IC50 MDA-MB-231 (MDA-MB-231): 0.71 ± 0.14
early apoptosis induction (annexin V/PI), MCF-7 (MCF-7 cells [5]): comparable
IC50 (MCF10A): 10.7 ± 1.3 µM

CCCCCCCCC/C=C\CCCCc1cc(=O)c2ccccc2n1C [Compound 3]
IC50 [7]: 15.8 ± 1.4 µM
IC50 [8]: 18.5 ± 1.2 µM

O=C1C=CC(=O)c2ccccc21 [1,4-Naphthoquinone, 1,4-naphthoquinone, reference compound]
spheroid morphology, MCF-7 (MCF-7 spheroids): changes in the morphology
IC50 (MCF-7 [2]): 29.5 ± 1 µM
SI IC50 MCF10A/IC50 MCF-7 (MCF-7 [2]): 0.30 ± 0.13
IC50 (MDA-MB-231): 19.3 ± 1.1 µM
SI IC50 MCF10A/ IC50 MDA-MB-231 (MDA-MB-231): 0.46 ± 0.14
duration and reversibility of the effect on cell viability, MDA-MB-231 (MDA-MB-231 cells [9]): irreversible effect
early apoptosis induction (annexin V/PI), MCF-7 (MCF-7 cells [5]): comparable
IC50 (MCF10A): 8.78 ± 1.1 µM
colony formation, MDA-MB-231 (MDA-MB-231 cells [4]): Significant reductions in colony formation
colony formation, MCF-7 (MCF-7 [3]): Significant reductions in colony formation
duration and reversibility of the effect on cell viability, MCF-7 (MCF-7 cells [10]): irreversible effect

CCCCCn1cc(C(=O)OCC)c(=O)c2cc(C3=CC(=O)c4ccccc4C3=O)ccc21 [Compound 11c, Ethyl 6-(1,4-dioxo-1,4-dihydronaphthalen-2-yl)-4-oxo-1-pentyl-1,4-dihydroquinoline-3-carboxylate]
IC50 (MCF-7 [2]): 32.8 ± 1.1 µM
SI IC50 MCF10A/IC50 MCF-7 (MCF-7 [2]): 0.31 ± 0.11
IC50 (MDA-MB-231): 16.4 ± 1.1 µM
SI IC50 MCF10A/ IC50 MDA-MB-231 (MDA-MB-231): 0.62 ± 0.12
duration and reversibility of the effect on cell viability, MDA-MB-231 (MDA-MB-231 cells [9]): not capable of sustaining the antitumor effect after 48 h of treatment
IC50 (MCF10A): 10.2 ± 1.1 µM
colony formation, MCF-7 (MCF-7 [3]): most effective
duration and reversibility of the effect on cell viability, MCF-7 (MCF-7 cells [10]): short effect
apoptosis profile (annexin V/PI), MDA-MB-231 (MDA-MB-231 cells [6]): induces apoptosis
